Like-named read-outs stand apart in the source and are kept apart here.

A word on the IC50: it is the midpoint of a concentration-inhibition curve.

One test deals with AKT3 (Homo sapiens, UniProt Q9Y243). Nature of the test: Protein kinase inhibition. The format is biochemical. Particulars: tested at 3 μM. The protocol:
(§1) The exemplary compound was also tested at 3 μM for protein kinase inhibition against the following protein kinases: AKT1, AKT2, AKT3, EGF-R, EGF-R (L858R mutation), FRAP1, GSK3B, MAPK1 (ERK2), MAPK3 (ERK1), BRAF, BRAF V599E, MAP2K1 (MEK1), MAP2K2 (MEK2), PDK1, RAF1, PI3K C2A, PI3K C2B, P13K C3, PI3K 3A, PI3K CB, PI3K CD, and PI3K CG. […] The main downstream targets for kRAS are ERK (Samatar et al., Targeting RAS-ERK signaling in cancer: promises and challenges. Nat Rev Drug Discov. 2014; 13:928-42 and Martini et al., Ann Med. 2014; 46:372-83). kRAS activates ERK and AKT leading to phosphorylated ERK and phosphorylated AKT. A compound that suppresses kRAS activity is expected to lower phosphorylated ERK and phosphorylated AKT.

The next test has as its target MAP2K2 (MEK2) (Homo sapiens, UniProt P36507). Briefly: Protein kinase inhibition. It is filed as biochemical. Particulars: tested at 3 μM. The protocol: as §1
The target in another test is AKT1 (Homo sapiens, UniProt P31749). Briefly: Protein kinase inhibition. It is filed as biochemical. The settings on record: tested at 3 μM. The procedure:
as §1

The target in the next test is AKT2 (Homo sapiens, UniProt P31751). Nature of the test: Protein kinase inhibition. The format is biochemical. The settings on record: tested at 3 μM. The procedure: as §1
The target in the next test is MAPK1 (ERK2) (Homo sapiens, UniProt P28482). Briefly: Protein kinase inhibition. The format is biochemical. Particulars: tested at 3 μM. The procedure: as §1
The target in the next test is BRAF (Homo sapiens, UniProt P15056). Nature of the test: Protein kinase inhibition. It is filed as biochemical. The settings on record: tested at 3 μM. The protocol:
as §1

The target in a further test is RAF1 (Homo sapiens, UniProt P04049). Nature of the test: Protein kinase inhibition. The format is biochemical. The settings on record: tested at 3 μM. The protocol:
as §1

For the next test, the target named is PI3K C2B (Homo sapiens, UniProt O00750). Briefly: Protein kinase inhibition. The format is biochemical. The settings on record: tested at 3 μM. The procedure: as §1
For a further test, the target named is EGF-R (Homo sapiens, UniProt P00533). Briefly: Protein kinase inhibition. It is filed as biochemical. Particulars: tested at 3 μM. The procedure: as §1
The next test deals with PI3K 3A (Homo sapiens, UniProt P42336). Nature of the test: Protein kinase inhibition. Particulars: tested at 3 μM. It is filed as biochemical. The procedure: as §1
Another test has as its target GSK3B (Homo sapiens, UniProt P49841). Nature of the test: Protein kinase inhibition. The format is biochemical. Particulars: tested at 3 μM. The protocol:
as §1

In a further test the target is EGF-R (L858R mutation) (Homo sapiens, UniProt P00533, L858R). Nature of the test: Protein kinase inhibition. The settings on record: tested at 3 μM. It is filed as biochemical. The procedure: as §1
In the next test the target is FRAP1 (Homo sapiens, UniProt P42345). Nature of the test: Protein kinase inhibition. It is filed as biochemical. The settings on record: tested at 3 μM. The protocol: as §1
For a further test, the target named is MAP2K1 (MEK1) (Homo sapiens, UniProt Q02750). Briefly: Protein kinase inhibition. The format is biochemical. Particulars: tested at 3 μM. The protocol:
as §1

The next test has as its target BRAF V599E (Homo sapiens, UniProt P15056, V600E). Briefly: Protein kinase inhibition. It is filed as biochemical. Particulars: tested at 3 μM. The protocol: as §1
The target in the next test is PI3K CB (Homo sapiens, UniProt P42338). Briefly: Protein kinase inhibition. It is filed as biochemical. The settings on record: tested at 3 μM. The protocol:
as §1

The test system of test [1] is SW620 human cancer cells (G12V kRAS). Briefly: Cytotoxicity assay (CellTiter-Glo 2.0, 72 hours). It is filed as cell-based. The procedure: FIG. 1, Cytotoxicity of exemplary compound (Structure 1) on SW620 human cancer cells. The cytotoxicity of compounds of interest are tested against the human colon cancer cell line SW620 as described in the experimental section. SW620 cells express a mutant G12V kRAS. Compounds are incubated with cells for 72 hours and the assay developed using Cell Titer Glo 2.0. IC50 values are determined using GraphPad Prism4.
Structure 1 was assayed for inhibition of cell proliferation and killing cancer cells. Cytotoxicity assays were conducted according to the following general procedure. SW620, SW1990, etc, were all maintained in Leibowitz L15 media supplemented with 10% fetal bovine serum and 1% PenStrep and grown in a 37° C. incubator without supplemental CO2. Cells were plated into 96 well flat bottom plates (2 million/plate, ˜20,000/well, 200 μLmedia/well). The cells were allowed to settle and adhere to plate bottom overnight.
Compounds were diluted in media from a 10 mM stock solution starting at 50 μM, using 2-fold dilutions, in a column in a 96-well plate. Media was removed from the plate containing cells and replaced with media containing diluted compounds. Plates were incubated 72 hours at 37° C. with no supplementary CO2. […] Luminescence was read with a FLx800 (BioTek Instruments). […]
On the technique in general: In ATP-based viability assays light output follows the ATP content of the culture.

MAPK1 (ERK2), sequence (P28482 whole entry, species assumed): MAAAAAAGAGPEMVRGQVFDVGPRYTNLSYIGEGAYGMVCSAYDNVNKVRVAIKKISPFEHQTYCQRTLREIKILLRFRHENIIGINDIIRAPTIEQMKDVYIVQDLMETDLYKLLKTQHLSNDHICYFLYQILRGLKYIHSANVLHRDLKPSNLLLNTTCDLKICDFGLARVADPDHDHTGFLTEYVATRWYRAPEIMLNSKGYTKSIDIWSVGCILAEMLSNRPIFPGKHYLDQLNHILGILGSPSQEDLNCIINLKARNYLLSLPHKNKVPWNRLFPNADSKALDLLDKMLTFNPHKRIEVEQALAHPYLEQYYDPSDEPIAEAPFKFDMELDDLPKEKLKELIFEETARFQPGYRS
AKT2, sequence (P31751 whole entry, species assumed): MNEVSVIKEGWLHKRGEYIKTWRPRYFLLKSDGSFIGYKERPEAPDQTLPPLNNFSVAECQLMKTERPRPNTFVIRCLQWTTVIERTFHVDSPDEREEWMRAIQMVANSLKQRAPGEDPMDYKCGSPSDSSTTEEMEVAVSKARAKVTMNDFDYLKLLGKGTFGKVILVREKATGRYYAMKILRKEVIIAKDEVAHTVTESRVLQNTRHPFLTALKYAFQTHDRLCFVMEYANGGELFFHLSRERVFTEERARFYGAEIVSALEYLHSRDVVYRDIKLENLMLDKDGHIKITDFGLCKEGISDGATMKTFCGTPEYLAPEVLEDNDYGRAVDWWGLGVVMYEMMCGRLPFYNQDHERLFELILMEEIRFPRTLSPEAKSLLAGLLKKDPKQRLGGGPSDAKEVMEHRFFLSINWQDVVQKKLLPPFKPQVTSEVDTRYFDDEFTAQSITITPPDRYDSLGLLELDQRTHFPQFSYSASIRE
GSK3B, sequence (P49841 whole entry, species assumed): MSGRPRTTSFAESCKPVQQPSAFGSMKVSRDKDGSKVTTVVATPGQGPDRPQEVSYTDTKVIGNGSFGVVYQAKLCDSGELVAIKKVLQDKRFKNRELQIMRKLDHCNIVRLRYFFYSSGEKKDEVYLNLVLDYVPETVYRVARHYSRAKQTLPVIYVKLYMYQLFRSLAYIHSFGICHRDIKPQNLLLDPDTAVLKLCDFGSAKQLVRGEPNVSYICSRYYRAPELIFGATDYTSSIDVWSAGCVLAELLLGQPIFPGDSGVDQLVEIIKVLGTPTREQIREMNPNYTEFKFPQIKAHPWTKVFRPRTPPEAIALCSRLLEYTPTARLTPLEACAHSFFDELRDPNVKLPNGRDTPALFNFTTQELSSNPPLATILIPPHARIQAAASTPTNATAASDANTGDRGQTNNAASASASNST
AKT1, sequence (P31749 whole entry, species assumed): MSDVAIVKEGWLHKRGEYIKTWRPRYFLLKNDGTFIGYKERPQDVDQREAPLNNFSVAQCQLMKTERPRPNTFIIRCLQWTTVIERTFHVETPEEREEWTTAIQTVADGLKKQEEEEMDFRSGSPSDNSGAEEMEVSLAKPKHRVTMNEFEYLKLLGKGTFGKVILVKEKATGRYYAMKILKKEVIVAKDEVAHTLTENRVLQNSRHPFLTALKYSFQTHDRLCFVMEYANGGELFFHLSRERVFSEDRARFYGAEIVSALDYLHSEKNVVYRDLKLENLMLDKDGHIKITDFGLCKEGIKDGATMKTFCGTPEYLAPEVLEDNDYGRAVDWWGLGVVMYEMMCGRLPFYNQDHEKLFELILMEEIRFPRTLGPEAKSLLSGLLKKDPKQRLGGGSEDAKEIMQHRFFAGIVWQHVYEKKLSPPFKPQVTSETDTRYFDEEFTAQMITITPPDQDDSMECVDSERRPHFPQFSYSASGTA
PI3K CB, sequence (P42338 whole entry): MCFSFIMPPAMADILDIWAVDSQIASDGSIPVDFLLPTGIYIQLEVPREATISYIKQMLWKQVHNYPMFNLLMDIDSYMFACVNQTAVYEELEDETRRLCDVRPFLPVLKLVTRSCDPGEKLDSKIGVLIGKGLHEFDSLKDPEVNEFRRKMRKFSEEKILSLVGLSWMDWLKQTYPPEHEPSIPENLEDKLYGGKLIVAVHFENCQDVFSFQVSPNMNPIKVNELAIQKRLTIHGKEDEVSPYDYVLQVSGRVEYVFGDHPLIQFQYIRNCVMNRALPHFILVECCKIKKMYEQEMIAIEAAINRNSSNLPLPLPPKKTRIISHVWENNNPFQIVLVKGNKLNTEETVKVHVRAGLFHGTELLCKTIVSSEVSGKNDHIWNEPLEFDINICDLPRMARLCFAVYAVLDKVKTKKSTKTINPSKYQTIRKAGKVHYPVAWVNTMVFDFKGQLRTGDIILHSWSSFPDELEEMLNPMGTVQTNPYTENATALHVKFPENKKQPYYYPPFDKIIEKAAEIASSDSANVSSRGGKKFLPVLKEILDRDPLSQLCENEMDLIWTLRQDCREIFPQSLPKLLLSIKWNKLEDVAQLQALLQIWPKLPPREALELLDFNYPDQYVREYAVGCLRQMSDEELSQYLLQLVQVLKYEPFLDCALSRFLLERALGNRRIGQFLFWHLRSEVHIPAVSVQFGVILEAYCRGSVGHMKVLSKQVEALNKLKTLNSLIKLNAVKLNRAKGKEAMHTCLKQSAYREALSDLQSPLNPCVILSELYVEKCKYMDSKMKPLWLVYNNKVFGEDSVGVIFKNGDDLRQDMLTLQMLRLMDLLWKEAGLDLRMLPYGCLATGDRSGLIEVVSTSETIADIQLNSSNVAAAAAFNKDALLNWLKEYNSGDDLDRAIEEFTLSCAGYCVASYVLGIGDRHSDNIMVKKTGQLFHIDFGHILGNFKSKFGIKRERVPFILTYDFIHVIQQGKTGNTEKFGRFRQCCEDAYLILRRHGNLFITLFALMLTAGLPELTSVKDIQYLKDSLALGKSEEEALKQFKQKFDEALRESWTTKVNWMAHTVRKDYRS
PI3K CB, sequence (P27986 whole entry partner): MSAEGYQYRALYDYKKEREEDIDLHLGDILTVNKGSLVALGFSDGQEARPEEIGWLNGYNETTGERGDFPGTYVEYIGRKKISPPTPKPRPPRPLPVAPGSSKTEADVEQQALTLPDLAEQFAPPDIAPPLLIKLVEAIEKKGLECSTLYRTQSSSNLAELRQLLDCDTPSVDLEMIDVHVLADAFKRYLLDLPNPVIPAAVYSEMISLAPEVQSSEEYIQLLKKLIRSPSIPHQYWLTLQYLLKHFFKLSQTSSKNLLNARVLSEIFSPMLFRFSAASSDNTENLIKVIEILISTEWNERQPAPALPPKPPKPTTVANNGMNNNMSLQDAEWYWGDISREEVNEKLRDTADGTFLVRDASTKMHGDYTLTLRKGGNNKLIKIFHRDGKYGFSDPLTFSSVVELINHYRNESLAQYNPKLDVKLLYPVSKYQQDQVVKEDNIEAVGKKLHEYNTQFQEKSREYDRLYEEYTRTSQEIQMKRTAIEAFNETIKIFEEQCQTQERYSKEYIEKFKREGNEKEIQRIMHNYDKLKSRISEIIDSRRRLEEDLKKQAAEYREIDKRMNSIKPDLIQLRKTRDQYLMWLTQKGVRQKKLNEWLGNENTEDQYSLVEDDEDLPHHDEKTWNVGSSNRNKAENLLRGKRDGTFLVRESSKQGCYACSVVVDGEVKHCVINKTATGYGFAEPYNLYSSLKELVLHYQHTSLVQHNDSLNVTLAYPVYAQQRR
EGF-R, sequence (P00533 25-1210, species assumed): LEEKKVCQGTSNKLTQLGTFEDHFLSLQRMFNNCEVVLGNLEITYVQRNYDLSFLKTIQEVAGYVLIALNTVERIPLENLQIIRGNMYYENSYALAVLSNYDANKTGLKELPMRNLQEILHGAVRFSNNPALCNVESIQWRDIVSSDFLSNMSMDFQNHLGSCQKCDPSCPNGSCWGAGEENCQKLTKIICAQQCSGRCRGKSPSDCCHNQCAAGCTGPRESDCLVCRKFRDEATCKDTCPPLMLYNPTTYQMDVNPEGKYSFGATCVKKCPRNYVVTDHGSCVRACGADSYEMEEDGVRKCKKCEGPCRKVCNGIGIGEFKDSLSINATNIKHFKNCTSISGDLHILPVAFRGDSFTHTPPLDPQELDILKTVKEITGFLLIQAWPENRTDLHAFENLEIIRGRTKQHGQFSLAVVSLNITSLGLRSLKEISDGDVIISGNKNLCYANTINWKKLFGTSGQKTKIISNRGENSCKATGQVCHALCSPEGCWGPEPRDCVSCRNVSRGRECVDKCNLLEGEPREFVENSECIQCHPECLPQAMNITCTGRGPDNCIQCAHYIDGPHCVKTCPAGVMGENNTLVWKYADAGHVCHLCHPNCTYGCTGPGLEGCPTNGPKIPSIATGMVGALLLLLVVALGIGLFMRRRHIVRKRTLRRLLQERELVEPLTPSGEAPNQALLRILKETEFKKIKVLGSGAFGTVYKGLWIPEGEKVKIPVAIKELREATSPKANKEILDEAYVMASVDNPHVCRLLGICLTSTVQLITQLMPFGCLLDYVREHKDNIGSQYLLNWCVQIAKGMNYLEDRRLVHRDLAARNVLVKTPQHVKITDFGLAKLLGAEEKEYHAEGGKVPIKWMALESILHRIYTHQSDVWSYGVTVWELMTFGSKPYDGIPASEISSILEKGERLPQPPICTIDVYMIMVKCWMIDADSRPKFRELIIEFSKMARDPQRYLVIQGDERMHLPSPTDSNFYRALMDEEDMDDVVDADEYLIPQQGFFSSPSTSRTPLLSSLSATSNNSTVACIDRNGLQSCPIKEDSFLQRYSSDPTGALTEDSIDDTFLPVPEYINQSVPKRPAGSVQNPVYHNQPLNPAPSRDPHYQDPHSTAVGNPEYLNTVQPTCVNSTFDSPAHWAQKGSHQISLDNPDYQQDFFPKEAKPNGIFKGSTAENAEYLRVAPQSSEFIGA

For `Cc1nc2c(-c3ccccc3)c(C)nn2c(NCc2ccccn2)c1Cc1ccccc1` [Structure 1], the “Kinase inhibitory activity, AKT3” value on AKT3 is listed as “No kinase inhibitory activity”. Also, the “Kinase inhibitory activity, MAP2K2 (MEK2)” value on MAP2K2 (MEK2) is on record as “No kinase inhibitory activity”. In addition, on AKT1, the “Kinase inhibitory activity, AKT1” value is recorded as “No kinase inhibitory activity”. Besides, on AKT2, the “Kinase inhibitory activity, AKT2” value was “No kinase inhibitory activity”. Further, the “Kinase inhibitory activity, MAPK1 (ERK2)” value on MAPK1 (ERK2) is “No kinase inhibitory activity”. On BRAF, the “Kinase inhibitory activity, BRAF” value is given as “No kinase inhibitory activity”. Besides, the “Kinase inhibitory activity, RAF1” value at RAF1 is recorded as “No kinase inhibitory activity”. Moreover, at PI3K C2B, the “Kinase inhibitory activity, PI3K C2B” value was “No kinase inhibitory activity”. At EGF-R, the “Kinase inhibitory activity, EGF-R” value is “No kinase inhibitory activity”. Moreover, the “Kinase inhibitory activity, PI3K 3A” value on PI3K 3A is given as “No kinase inhibitory activity”. Further, on GSK3B, the “Kinase inhibitory activity, GSK3B” value is recorded as “No kinase inhibitory activity”. In addition, the “Kinase inhibitory activity, EGF-R (L858R mutation)” value at EGF-R (L858R mutation) was “No kinase inhibitory activity”. Besides, the “Kinase inhibitory activity, FRAP1” value at FRAP1 was “No kinase inhibitory activity”. Besides, the “Kinase inhibitory activity, MAP2K1 (MEK1)” value on MAP2K1 (MEK1) was “No kinase inhibitory activity”. Moreover, the “Kinase inhibitory activity, BRAF V599E” value at BRAF V599E is reported as “No kinase inhibitory activity”. For the same compound, the “Kinase inhibitory activity, PI3K CB” value at PI3K CB is recorded as “No kinase inhibitory activity”. In addition, the IC50 in [1] (SW-620, Cell Titer Glo 2.0, read-out: IC50, cytotoxicity on SW620 human cancer cells (FIG. 1 legend)) came to 3.9 µM; in test [1] (SW-620, CellTiter-Glo 2.0, read-out: IC50 in the SW620 cells), 3.9 µM.

Values taken from patent US11390626B2, “Pyrazolopyrimidine modulators of RAS GTPase” (Tosk, Inc., priority 2019, dated 2022).
